Holding throughout (assay type): cell-based, Plasmodium falciparum
In experiment [1] the test system is P. falciparum Dd2 Cytb G131S. In words: SYBR Green ABS proliferation assay, NCGC00374598 selected clone C11. As to conditions: Plasmodium falciparum. In a few lines:
(§1)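 Proliferation of cytb-mutant Dd2 clones was measured by SYBR Green-I fluorescence at 72 h, normalized to controls.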

Experiment [2] has as its system P. falciparum Dd2 Cytb F123L. In words: SYBR Green ABS proliferation assay, NCGC00473217 selected clone G08. As to conditions: for AC50: Plasmodium falciparum. In a few lines:
as §1

The subject of experiment [3] is P. falciparum Dd2 (clone B2) asexual blood stage parasites. Nature of the experiment: P. falciparum Dd2 asexual blood stage SYBR Green-I 72 h proliferation assay (qHTS). As to conditions: Plasmodium falciparum.
For experiment [4], the system named is P. falciparum Dd2 Cytb A122D. Nature of the experiment: SYBR Green ABS proliferation assay, NCGC00473217 selected clone F12. As to conditions: for AC50: Plasmodium falciparum. Summed up: as §1
Experiment [5] has as its system P. falciparum Dd2 Cytb V259L. Nature of the experiment: SYBR Green ABS proliferation assay, NCGC00473217 selected clone F06. As to conditions: for AC50: Plasmodium falciparum. Summed up: as §1
[6] abbreviates: DD2, […], averaged from three independent replicates, top concentration 29 µM, read-out: Average AC50 (Log[M]), NCGC00374598 clone C11 (Cytb G131S) (converted).
Where [7] appears, read: DD2, […], averaged from three independent replicates, top concentration 29 µM, read-out: Average AC50 (Log[M]), NCGC00473217 clone G08 (Cytb F123L) (converted).
Setting [8] is: DD2, Dd2 parental, Hill fit, averaged from three independent replicates, top concentration 29 µM, read-out: Average AC50 (Log[M]), Dd2 (converted).
The mark [9] stands for this setting: DD2, […], averaged from three independent replicates, top concentration 29 µM, read-out: Average AC50 (Log[M]), NCGC00473217 clone F12 (Cytb A122D) (converted).
The mark [10] stands for this setting: DD2, […], averaged from three independent replicates, top concentration 29 µM, read-out: Average AC50 (Log[M]), NCGC00473217 clone F06 (Cytb V259L) (converted).

Where two headings read alike, the source gives them in different places.

As a reminder, the AC50 is the concentration at which the activity in the assay is half-maximal. For the molecule `CCCN1C(CC(C)C)=N[S+](=O)([O-])c2cc(NC(=O)c3ccc(F)s3)ccc21` [NCGC00523537-01], the AC50 is 3.17e-07 M in experiment [1] (setting [6]); 3.85e-06 M in experiment [2] (setting [7]); 1.12e-07 M in experiment [3] (setting [8]); 7.96e-07 M in experiment [4] (setting [9]); 8.93e-07 M in experiment [5] (setting [10]).

Take `CCCN1C(CC(C)C)=N[S+](=O)([O-])c2cc(NC(=O)c3ccon3)ccc21` [NCGC00521044-01]: the AC50 in experiment [1] (setting [6]) was 6.7e-06 M; in experiment [2] (setting [7]), 4.15e-07 M; in experiment [3] (setting [8]), 1.26e-05 M; in experiment [4] (setting [9]), 9.46e-06 M; in experiment [5] (setting [10]), 7.96e-06 M.

In the case of `CCCN1C(CC(C)C)=N[S+](=O)([O-])c2cc(NC(=O)C34CC5CC(CC(C5)C3)C4)ccc21` [NCGC00521891-01], the AC50 in experiment [1] (setting [6]) is 2.82e-07 M; in experiment [2] (setting [7]), 1e-06 M; in experiment [3] (setting [8]), 3.56e-06 M; in experiment [4] (setting [9]), 1.89e-06 M; in experiment [5] (setting [10]), 1.12e-06 M.

In the case of `CCCN1C(CC(C)C)=N[S+](=O)([O-])c2cc(N[S+](=O)([O-])c3ccc4ccccc4c3)ccc21` [NCGC00521141-01], the AC50 in experiment [1] (setting [6]) was 7.1e-06 M; in experiment [2] (setting [7]), 7.1e-07 M; in experiment [3] (setting [8]) it was 1.26e-05 M; in experiment [4] (setting [9]), 1.12e-05 M; in experiment [5] (setting [10]), 5.32e-06 M.

`CCCN1C(CC(C)C)=N[S+](=O)([O-])c2cc(NC(=O)c3cc4ccncc4[nH]3)ccc21` [NCGC00521877-01]: the AC50 in experiment [1] (setting [6]) is 1.42e-06 M; in experiment [2] (setting [7]), 9.29e-07 M; in experiment [3] (setting [8]) it was 2.24e-06 M; in experiment [4] (setting [9]) it was 7.67e-07 M; in experiment [5] (setting [10]), 7.67e-07 M.

Consider `CCCN1C(CC(C)C)=N[S+](=O)([O-])c2cc(NC(=O)Nc3ccccc3)ccc21` [NCGC00521878-01], for which the AC50 in experiment [1] (setting [6]) is 7.96e-06 M; in experiment [2] (setting [7]), 1.59e-05 M; in experiment [3] (setting [8]), 3.56e-06 M; in experiment [4] (setting [9]) it was 8.28e-06 M; in experiment [5] (setting [10]), 1.04e-05 M.

Turning to `CCCN1C(CC(C)C)=N[S+](=O)([O-])c2cc(NC(=O)c3cc4c(s3)CCC4)ccc21` [NCGC00521150-01], the AC50 in experiment [1] (setting [6]) is 1.04e-05 M; in experiment [2] (setting [7]), 1.12e-05 M; in experiment [3] (setting [8]), 1.59e-05 M; in experiment [4] (setting [9]), 1.59e-05 M; in experiment [5] (setting [10]), 1.12e-05 M.

Regarding `CCCN1C(CC(C)C)=N[S+](=O)([O-])c2cc(NC(=O)c3cc4ncccn4n3)ccc21` [NCGC00521137-01], the AC50 in experiment [1] (setting [6]) is 5.97e-06 M; in experiment [2] (setting [7]), 1.04e-05 M; in experiment [3] (setting [8]) it was 1e-05 M; in experiment [4] (setting [9]), 9.29e-06 M; in experiment [5] (setting [10]) it was 7.38e-06 M.

Regarding `Cc1cc(Nc2ccc(S(F)(F)(F)(F)F)cc2)n2nc(C(C)(F)F)nc2n1` [DSM265, reference compound], the concentration at half-maximal activity (AC50) in experiment [1] (DD2, NCGC00374598 selected clone, read-out: AC50 Log[M] ± SD, Cytb G131S (converted)) is 2.4e-08 M; in experiment [1] (DD2, Suppl Table 6, read-out: AC50 (mM), Dd2 Cytb G131S), 2.4e-08 M; in experiment [2] (DD2, NCGC00473217 selected clone, read-out: AC50 Log[M] ± SD, Cytb F123L (converted)), 1.95e-08 M; in experiment [2] (DD2, Suppl Table 6, read-out: AC50 (mM), Dd2 Cytb F123L), 1.95e-08 M; in experiment [3] (DD2, 72 h, SYBR Green 72 h, WT Dd2-B2, read-out: AC50 Log[M] ± SD, Dd2-B2 (parental line) (converted)), 3.8e-08 M; in experiment [3] (DD2, Suppl Table 6, read-out: AC50 (mM), WT (Dd2-B2)), 3.8e-08 M. Further, the AC50 in experiment [4] (DD2, NCGC00473217 selected clone, read-out: AC50 Log[M] ± SD, Cytb A122D (converted)) is 1.41e-08 M; in experiment [4] (DD2, Suppl Table 6, read-out: AC50 (mM), Dd2 Cytb A122D) it was 1.41e-08 M; in experiment [5] (DD2, NCGC00473217 selected clone, read-out: AC50 Log[M] ± SD, Cytb V259L (converted)), 3.16e-08 M; in experiment [5] (DD2, Suppl Table 6, read-out: AC50 (mM), Dd2 Cytb V259L) it was 3.16e-08 M. The “susceptibility of F123L mutant compared to parental line” value in experiment [2] is “significantly more susceptible”. The “susceptibility of A122D mutant compared to parental line” value in experiment [4] is listed as “significantly more susceptible”. In addition, the “susceptibility of V259L variant compared to parental line” value in experiment [5] was “unchanged”.

With `CCCN1C(CC(C)C)=N[S+](=O)([O-])c2cc(NC(=O)c3sccc3F)ccc21` [NCGC00523542-01], the AC50 in experiment [1] (setting [6]) is 1.78e-06 M; in experiment [2] (setting [7]), 7.52e-06 M; in experiment [3] (setting [8]) it was 1.59e-06 M; in experiment [4] (setting [9]) it was 1.31e-06 M; in experiment [5] (setting [10]), 5.43e-06 M.

As for `CCCN1C(CC(C)C)=N[S+](=O)([O-])c2cc(NC(=O)c3cncnc3)ccc21` [NCGC00521134-01], the AC50 in experiment [1] (setting [6]) is 4.48e-06 M; in experiment [2] (setting [7]) it was 4.48e-06 M; in experiment [3] (setting [8]) it was 8.93e-06 M; in experiment [4] (setting [9]) it was 3.77e-06 M; in experiment [5] (setting [10]), 1.59e-06 M.

For the molecule `CCCN1C(CC(C)C)=N[S+](=O)([O-])c2cc(NC(=O)C3CCN(C)CC3)ccc21` [NCGC00521111-01], the AC50 in experiment [1] (setting [6]) is 1.17e-06 M; in experiment [2] (setting [7]), 1.22e-05 M; in experiment [3] (setting [8]) it was 2.08e-05 M; in experiment [4] (setting [9]), 3.77e-07 M; in experiment [5] (setting [10]) it was 1.53e-05 M.

The values above are taken from PMC7822874, “Chemoprotective antimalarials identified through quantitative high-throughput screening of Plasmodium blood and liver stage parasites” (Scientific Reports, 2021).
